Results: patent publication US20050170022A1, “Extracts of blueberries with anti-oxidant and anti-cancer properties” (priority 2001, published 2005)

Legend:
HL-60 cells = assay: Cytotoxicity in human leukemia cells (HL-60), tritiated thymidine uptake; type: cell-based; settings: for IC50, inhibition of DNA synthesis (tritiated thymidine uptake): 90 minutes at 37 C
Procedure: The structure and identification of the seven isolated compounds was then determined using NMR. […] Verification after NMR was made by comparing mass spectra with the literature and by comparing the spectra with authentic compounds using thin layer chromatography. […] Using a well-established screening assay for cytotoxicity, the compounds were tested in a human leukemia cell line (HL-60) for their ability to inhibit growth of these cells in culture. This assay is routinely used by those of skill to determine the potential anti-carcinogenic activity of chemicals where anti-carcinogenic activity is correlated with growth inhibitory activity in HL-60 cells. Uptake of tritiated thymidine into cells, a measure of the level of DNA synthesis and thus cell growth, was determined in the cells both with and without the presence of each of the seven blueberry extract compounds.
HL-60 cells were cultivated in 1.62% RPMI 1640 medium supplemented with 10% fetal calf serum and 1% penicillin-streptomycin. The concentration of the cells in the medium was kept between 2 and 10×10^5 counts/ml. Cell concentrations were counted at the beginning of each experiment with a microscope. Cells were washed without antibiotics and collected by centrifugation. The cells were then diluted to 3×10^5 counts/ml with cold medium without antibiotics. Tritiated thymidine was mixed into the cold medium at a concentration of 150 Ci/mmol. The samples to be tested were dissolved in DMSO at concentrations between 0.1 g/L and 50 ug/L. A 2 microliter sample of each concentration was added to 6 ml tubes, using triplicate tubes for reproducibility. A 1 ml sample of the HL-60 cell culture was added to each tube, […]. The tubes were incubated at 37 C for 90 minutes and then cooled over ice. Cold PBS was added to each tube and they were centrifuged at 1000 rpm for 5 minutes. The supernatant was discarded and distilled water mixed with the cells. Free and bound tritiated thymidine levels were measured by scintillation counting.

[1] = Rancimat test, oxidative stability of lard; settings: for Induction Time / Anti-oxidant Index: lard samples; for Anti-oxidant Index: lard negative control = 1.00
Procedure: The potential anti-oxidative properties of the seven compounds was also tested. Experiments were performed using the Rancimat method, a common method for measurement of anti-oxidant activity of both synthetic and natural anti-oxidants. The method is based on measuring changes in electrical conductivity of water caused by the formation of short-chain compounds when fats and oils are oxidized under elevated temperature and accelerated aeration. Using lard samples, the effects of each of the seven compounds on the oxidative stability of lard was determined. The anti-oxidative activity levels of the compounds isolated from blueberry are shown below in Table 1. The levels of anti-oxidant activity can be compared with a known anti-oxidant compound BHT.

[2] = test system: human colon (HCT-8) tumor cells; settings: cited from earlier work

| SMILES | inhibition of DNA synthesis / cell growth in HL-60 cells (in words) (HL-60 cells) | IC50, inhibition of DNA synthesis (tritiated thymidine uptake) (HL-60 cells) [ppm] | Induction Time [1] [h] | Anti-oxidant Index [1] | oxidation-inhibition activity (in words) [1] | cytotoxicity (in words) [2] |
| --- | --- | --- | --- | --- | --- | --- |
| C[C@@H]1CC[C@]2(C(=O)O)CC[C@]3(C)C(=CC[C@@H]4[C@@]5(C)CC[C@H](O)C(C)(C)[C@@H]5CC[C@]43C)[C@@H]2[C@]1(C)O [3β,19α-Dihydroxy-urs-12-en-28-oic Acid, 3β,19α-dihydroxy-urs-12-en-28-oic acid] | effectively inhibit DNA synthesis | 1 | 2.2 | 1.05 |  |  |
| O=Cc1ccc(CO)o1 [5-Hydroxymethyl-2-furfural, 5-hydroxymethyl-2-furfural] |  |  | 2.1 | 1.00 |  |  |
| Cc1cc(C(C)(C)C)c(O)c(C(C)(C)C)c1 [BHT, reference compound] |  |  | 5.8 | 2.76 |  |  |
| O=C(O)c1cc(O)c(O)c(O)c1 [Gallic Acid, gallic acid] |  |  | 28.1 | 13.38 | high oxidation-inhibition activity |  |
| O=C(O)c1ccc(O)c(O)c1 [Protocatechuic Acid, protocatechuic acid] |  |  | 18.5 | 8.81 | high oxidation-inhibition activity |  |
| CC[C@H](CC[C@@H](C)[C@H]1CC[C@H]2[C@@H]3CC=C4C[C@@H](O[C@@H]5O[C@H](CO)[C@@H](O)[C@H](O)[C@H]5O)CC[C@]4(C)[C@H]3CC[C@]12C)C(C)C [Sitosterol-β-D-glucoside, sitosterol-β-D-glucoside] |  |  | 2.4 | 1.14 |  |  |
| COc1cc(C(=O)O)cc(OC)c1O [Syringic Acid, syringic acid] |  |  | 3.1 | 1.48 |  |  |
| C[C@H]1[C@H](C)CC[C@]2(C(=O)O)CC[C@]3(C)C(=CC[C@@H]4[C@@]5(C)CC[C@H](O)C(C)(C)[C@@H]5CC[C@]43C)[C@H]12 [Urosolic Acid, urosolic acid] | effectively inhibit DNA synthesis | 1.5 | 2.2 |  |  | marginal cytotoxicity |
